Format in all cases: cell-based
The target of assay [1] is T1, Her2 exon 20 YVMA insertion (A775_G776ins YVMA) (Homo sapiens, UniProt P04626, INS775YVMA).
T1 construct: expressed in transfected cells; host or cells: Ba/F3 (murine pro-B) cells transduced with lentivirus from pLVX-IRES puro
In words: Ba/F3-Her2 Exon20 YVMA cell anti-proliferative assay (CellTiter 96 MTS, 72 h). The settings on record: Ba/F3-Her2 Exon20 YVMA cells. In a few lines: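 IL-3-independent Ba/F3 cells transduced with the YVMA insertion were treated with compound in 4-fold dilutions from 10,000 nM top. After 72 h at 37° C, viable cells were quantified by MTS tetrazolium conversion, with absorbance read at 490 nm after 2 h.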

Assay [2] has as its target T2, human EGFR L858R and T790M double mutation (Homo sapiens, UniProt P00533, L858R/T790M).
T2 construct: expressed in transfected cells; host or cells: Ba/F3 (murine pro-B) cells transduced with lentivirus from pLVX-IRES puro
Put plainly: Ba/F3-EGFR L858R/T790M cell anti-proliferative assay (CellTiter 96 MTS, 72 h). The settings on record: Ba/F3-EGFR L858R/T790M cells. On the procedure:
An expression vector, pLVX-IRES puro (Clontech) coding for human EGFR L858R and T790M double mutation, was transfected into HEK293 cells by the Trans-Lentiviral ORF Packaging System (Thermo Scientific), to produce virus encoding EGFR L858R and T790M double mutations. Ba/F3 (DSMZ) cells maintained in RPMI 1640 medium supplemented with 10% fetal bovine serum, 200 μM L-glutamine/l 200 μg/mL penicillin/200 μg/mL streptomycin (Life Technology) and 10 ng/mL IL-3 (R&D system), were infected by EGFR L858R and T790M double mutation virus and subsequently selected by puromycin (Life Technology) selection and IL-3 depletion. […] The anti-proliferative activity of compounds was determined as follows: BaF3-EGFR L858R/T790M cells seeded in 96 well plates (2500 cells/well) were treated with test compound (dissolved in DMSO) at a series of concentrations (4-fold dilution, top concentration: 10,000 nM). The plates were incubated for 72 h in a 37° C. incubator with 5% CO2, and the number of viable cells in each well were measured indirectly by CellTiter 96® Aqueous One Solution Cell Proliferation Assay (Promega; this assay is a colorimetric method for determining the number of viable cells through measurement of their metabolic activity by detection of enzymatic conversion of tetrazolium salts into blue formazan derivatives). Reagent (20 μL) was added into each well, and the plates were returned to the incubator for 2 h. The absorbance in each well was then measured at 490 nm using an Envision plate reader (Perkin Elmer).

Assay [3] has as its target T3, human EGFR exon 20 insertion ASV (V769_D770insASV) (Homo sapiens, UniProt P00533, INS769ASV).
T3 construct: expressed in transfected cells; host or cells: Ba/F3 (murine pro-B) cells transduced with lentivirus from pLVX-IRES puro
Put plainly: Ba/F3-EGFR-Exon20-ASV cell anti-proliferative assay (CellTiter 96 MTS, 72 h). The settings on record: Ba/F3-EGFR-Exon20-ASV cells. The gist of the method: (§1)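 Ba/F3 cells made IL-3-independent by lentiviral EGFR exon 20 NPG or ASV insertion were exposed 72 h at 37 °C to 4-fold dilutions of compound (top 10,000 nM). Viability read by MTS tetrazolium conversion, absorbance 490 nm after 2 h.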

The target of assay [4] is T4, human EGFR exon 20 insertion NPG (H773_V774insNPG) (Homo sapiens, UniProt P00533, INS772GNP).
T4 construct: expressed in transfected cells; host or cells: Ba/F3 (murine pro-B) cells transduced with lentivirus from pLVX-IRES puro
T4 sequence (P00533 with tags, fused parts or gaps INS772GNP): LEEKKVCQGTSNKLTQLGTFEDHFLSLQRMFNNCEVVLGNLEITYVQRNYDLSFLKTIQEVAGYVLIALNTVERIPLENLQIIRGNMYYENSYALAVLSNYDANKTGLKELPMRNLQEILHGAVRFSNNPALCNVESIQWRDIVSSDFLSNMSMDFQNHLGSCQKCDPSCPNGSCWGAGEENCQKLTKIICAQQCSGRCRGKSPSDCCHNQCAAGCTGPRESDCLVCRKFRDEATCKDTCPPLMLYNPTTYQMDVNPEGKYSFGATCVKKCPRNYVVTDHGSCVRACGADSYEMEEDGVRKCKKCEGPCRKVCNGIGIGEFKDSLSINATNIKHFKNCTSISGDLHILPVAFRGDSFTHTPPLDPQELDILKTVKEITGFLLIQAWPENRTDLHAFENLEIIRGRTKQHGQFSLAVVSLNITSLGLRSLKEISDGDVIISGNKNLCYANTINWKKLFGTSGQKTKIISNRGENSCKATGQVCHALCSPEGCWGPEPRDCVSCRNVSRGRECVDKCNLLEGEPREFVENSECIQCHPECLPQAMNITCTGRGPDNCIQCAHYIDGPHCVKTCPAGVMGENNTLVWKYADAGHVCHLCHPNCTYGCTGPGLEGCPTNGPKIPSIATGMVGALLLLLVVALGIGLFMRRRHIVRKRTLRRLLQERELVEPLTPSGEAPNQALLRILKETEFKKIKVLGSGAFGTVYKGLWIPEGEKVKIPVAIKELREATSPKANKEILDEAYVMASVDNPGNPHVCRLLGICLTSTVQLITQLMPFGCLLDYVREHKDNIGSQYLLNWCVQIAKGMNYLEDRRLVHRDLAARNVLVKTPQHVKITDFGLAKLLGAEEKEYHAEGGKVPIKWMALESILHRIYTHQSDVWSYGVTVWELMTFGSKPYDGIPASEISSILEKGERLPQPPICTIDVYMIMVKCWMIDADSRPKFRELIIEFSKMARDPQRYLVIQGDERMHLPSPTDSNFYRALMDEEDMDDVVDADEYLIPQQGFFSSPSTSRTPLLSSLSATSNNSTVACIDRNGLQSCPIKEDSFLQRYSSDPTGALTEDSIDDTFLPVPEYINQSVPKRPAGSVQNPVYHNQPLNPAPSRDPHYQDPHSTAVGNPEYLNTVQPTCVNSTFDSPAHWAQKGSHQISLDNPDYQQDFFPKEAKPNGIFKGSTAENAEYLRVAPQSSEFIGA
Put plainly: Ba/F3-EGFR-Exon20-NPG cell anti-proliferative assay (CellTiter 96 MTS, 72 h). The settings on record: Ba/F3-EGFR-Exon20-NPG cells. The gist of the method: as §1

Assay [5] has as its target T5, human EGFR E746-A750 deletion and T790M Mutation (Homo sapiens, UniProt P00533, DEL746-750/T790M).
T5 construct: expressed in transfected cells; host or cells: Ba/F3 (murine pro-B) cells transduced with lentivirus from pLVX-IRES puro
In words: Ba/F3-EGFR-Del/T790M cell anti-proliferative assay (CellTiter 96 MTS, 72 h). The settings on record: Ba/F3-EGFR-Del/T790M cells. In a few lines: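 Ba/F3 cells made IL-3-independent by lentiviral human EGFR E746-A750 del/T790M, puromycin-selected. Cells treated 72 h at 37 °C with compound, 4-fold dilutions from 10,000 nM top concentration. Viability read by MTS tetrazolium-to-formazan conversion, absorbance at 490 nm after 2 h with reagent.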

T1 sequence (P04626 with tags, fused parts or gaps INS775YVMA): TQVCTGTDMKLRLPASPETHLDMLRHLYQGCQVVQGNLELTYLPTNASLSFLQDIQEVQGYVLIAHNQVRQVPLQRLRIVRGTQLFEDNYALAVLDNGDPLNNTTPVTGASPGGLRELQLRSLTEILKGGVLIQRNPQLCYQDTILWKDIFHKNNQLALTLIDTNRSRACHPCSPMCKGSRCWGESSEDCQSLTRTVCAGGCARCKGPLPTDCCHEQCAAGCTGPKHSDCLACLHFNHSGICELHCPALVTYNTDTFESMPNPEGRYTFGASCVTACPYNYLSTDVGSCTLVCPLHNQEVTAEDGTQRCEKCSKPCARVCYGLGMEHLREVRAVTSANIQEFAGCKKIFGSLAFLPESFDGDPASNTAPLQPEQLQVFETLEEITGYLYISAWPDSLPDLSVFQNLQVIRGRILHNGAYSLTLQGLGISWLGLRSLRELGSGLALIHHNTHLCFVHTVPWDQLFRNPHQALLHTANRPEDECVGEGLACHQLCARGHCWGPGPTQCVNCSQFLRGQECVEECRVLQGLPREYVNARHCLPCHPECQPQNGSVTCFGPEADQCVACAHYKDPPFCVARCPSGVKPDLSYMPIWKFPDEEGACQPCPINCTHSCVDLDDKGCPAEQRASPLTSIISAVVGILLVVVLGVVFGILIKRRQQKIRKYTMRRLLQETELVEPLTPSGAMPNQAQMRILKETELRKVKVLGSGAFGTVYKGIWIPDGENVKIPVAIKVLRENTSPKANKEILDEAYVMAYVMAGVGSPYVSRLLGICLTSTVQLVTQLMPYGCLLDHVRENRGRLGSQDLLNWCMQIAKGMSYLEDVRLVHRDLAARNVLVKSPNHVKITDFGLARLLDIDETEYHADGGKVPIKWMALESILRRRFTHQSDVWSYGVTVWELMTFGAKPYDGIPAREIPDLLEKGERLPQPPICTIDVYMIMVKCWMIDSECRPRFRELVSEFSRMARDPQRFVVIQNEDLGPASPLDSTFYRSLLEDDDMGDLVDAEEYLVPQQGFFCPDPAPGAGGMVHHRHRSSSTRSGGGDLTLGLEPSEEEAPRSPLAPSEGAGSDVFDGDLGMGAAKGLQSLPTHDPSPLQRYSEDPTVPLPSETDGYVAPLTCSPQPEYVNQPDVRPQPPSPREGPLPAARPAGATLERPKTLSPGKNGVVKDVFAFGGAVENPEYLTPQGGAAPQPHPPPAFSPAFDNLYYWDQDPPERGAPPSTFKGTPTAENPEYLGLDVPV
T3 sequence (P00533 with tags, fused parts or gaps INS769ASV): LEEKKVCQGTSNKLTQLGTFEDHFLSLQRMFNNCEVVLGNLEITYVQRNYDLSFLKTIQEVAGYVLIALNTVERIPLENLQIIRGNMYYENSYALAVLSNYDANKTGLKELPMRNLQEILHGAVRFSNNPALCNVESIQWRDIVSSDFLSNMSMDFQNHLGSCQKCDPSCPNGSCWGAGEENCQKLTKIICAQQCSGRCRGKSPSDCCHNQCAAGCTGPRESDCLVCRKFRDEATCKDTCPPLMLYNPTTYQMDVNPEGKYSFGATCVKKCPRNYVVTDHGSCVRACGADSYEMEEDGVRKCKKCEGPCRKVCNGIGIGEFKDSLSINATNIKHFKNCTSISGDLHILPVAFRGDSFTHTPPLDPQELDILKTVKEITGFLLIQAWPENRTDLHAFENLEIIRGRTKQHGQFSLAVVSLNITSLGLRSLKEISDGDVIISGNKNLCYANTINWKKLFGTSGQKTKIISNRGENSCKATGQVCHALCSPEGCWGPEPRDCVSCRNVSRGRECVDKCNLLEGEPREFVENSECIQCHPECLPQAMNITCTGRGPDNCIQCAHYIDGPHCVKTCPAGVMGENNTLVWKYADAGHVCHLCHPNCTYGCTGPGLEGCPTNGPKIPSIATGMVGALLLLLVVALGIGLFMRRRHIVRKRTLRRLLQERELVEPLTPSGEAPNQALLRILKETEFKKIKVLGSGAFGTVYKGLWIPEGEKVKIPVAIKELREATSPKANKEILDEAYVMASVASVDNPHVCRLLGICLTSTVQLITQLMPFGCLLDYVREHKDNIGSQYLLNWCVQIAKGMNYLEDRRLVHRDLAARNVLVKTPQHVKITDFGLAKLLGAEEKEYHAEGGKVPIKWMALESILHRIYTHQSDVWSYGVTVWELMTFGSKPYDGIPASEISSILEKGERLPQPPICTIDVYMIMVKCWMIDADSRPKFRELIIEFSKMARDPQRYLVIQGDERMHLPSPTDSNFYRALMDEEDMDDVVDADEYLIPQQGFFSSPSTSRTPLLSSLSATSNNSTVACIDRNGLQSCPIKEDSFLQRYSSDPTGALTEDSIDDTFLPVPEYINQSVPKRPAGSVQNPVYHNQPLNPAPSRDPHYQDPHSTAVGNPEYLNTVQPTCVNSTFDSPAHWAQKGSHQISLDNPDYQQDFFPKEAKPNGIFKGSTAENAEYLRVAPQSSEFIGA
T5 sequence (P00533 with tags, fused parts or gaps DEL746-750/T790M): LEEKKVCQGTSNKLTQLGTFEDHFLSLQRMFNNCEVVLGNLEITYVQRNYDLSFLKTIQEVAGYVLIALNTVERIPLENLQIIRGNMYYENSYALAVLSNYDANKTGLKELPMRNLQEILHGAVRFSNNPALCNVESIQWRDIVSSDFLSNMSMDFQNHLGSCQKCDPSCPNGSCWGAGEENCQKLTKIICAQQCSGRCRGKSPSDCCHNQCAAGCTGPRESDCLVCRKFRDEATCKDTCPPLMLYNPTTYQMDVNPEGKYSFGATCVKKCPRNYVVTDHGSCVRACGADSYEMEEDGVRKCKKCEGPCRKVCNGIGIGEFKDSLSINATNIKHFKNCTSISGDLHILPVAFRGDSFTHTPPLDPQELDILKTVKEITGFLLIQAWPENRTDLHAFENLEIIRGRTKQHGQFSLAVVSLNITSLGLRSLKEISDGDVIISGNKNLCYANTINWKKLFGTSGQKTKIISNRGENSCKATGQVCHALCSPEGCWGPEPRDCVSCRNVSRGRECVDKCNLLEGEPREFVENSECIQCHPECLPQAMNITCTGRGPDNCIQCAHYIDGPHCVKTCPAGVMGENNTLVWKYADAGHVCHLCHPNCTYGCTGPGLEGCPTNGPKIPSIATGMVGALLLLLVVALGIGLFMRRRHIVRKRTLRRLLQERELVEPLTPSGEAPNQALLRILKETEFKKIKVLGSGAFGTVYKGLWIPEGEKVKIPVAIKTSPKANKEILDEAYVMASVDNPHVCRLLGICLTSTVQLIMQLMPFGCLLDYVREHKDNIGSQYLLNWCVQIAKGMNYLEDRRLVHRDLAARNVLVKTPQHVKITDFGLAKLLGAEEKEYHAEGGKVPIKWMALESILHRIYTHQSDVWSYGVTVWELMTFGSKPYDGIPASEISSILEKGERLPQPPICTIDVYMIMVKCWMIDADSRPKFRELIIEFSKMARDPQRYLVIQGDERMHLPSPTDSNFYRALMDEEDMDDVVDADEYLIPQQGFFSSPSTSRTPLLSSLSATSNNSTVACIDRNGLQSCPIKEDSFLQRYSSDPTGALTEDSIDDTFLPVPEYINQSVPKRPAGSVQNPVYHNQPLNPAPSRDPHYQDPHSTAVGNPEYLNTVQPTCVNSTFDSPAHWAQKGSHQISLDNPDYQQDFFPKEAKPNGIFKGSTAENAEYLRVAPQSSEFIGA

With `C=CC(=O)Nc1cc(Nc2ncc(CCP(C)(C)=O)c(-c3cn4c5c(cccc35)CCC4)n2)c(OC)cc1N(C)CCN(C)C` [Example 96], the half-inhibitory concentration (IC50) in assay [1], in assay [3] and in assay [4] was over 1000 nM throughout. Further, the “EGFR exon 21 L858R and exon 20 T790M mutation IC50” value in assay [2] is recorded as “D (IC50 value for the indicated mutant greater than about 1 μM)”. For the same molecule, the “EGFR exon 19 deletion and exon 20 T790M mutation IC50” value in assay [5] is given as “D (IC50 value for the indicated mutant greater than about 1 μM)”.
Consider `C=CC(=O)Nc1cc(Nc2nccc(-c3cn4c5c(cccc35)OCC4)n2)c(OC)cc1N(C)CCNC` [Example 105, N-(5-((4-(2,3-dihydro-[1,4]oxazino[2,3,4-hi]indol-6-yl)pyrimidin-2-yl)amino)-4-methoxy-2-(methyl(2-(methylamino)ethyl)amino)phenyl)acrylamide], for which the figures for the half-maximal inhibitory concentration (IC50) in assay [1], in assay [3] and in assay [4] were 500 to 1000 nM, 100 to 500 nM and 100 to 500 nM, respectively. The “EGFR exon 21 L858R and exon 20 T790M mutation IC50” value in assay [2] is “C (IC50 value for the indicated mutant between greater than about 500 to about 1 μM)”. The “EGFR exon 19 deletion and exon 20 T790M mutation IC50” value in assay [5] is listed as “A (IC50 value for the indicated mutant below about 100 nM)”.
`C=CC(=O)Nc1cc(Nc2ncc(C(=O)NCCOC)c(-c3cn4c5c(cccc35)CCC4)n2)c(OC)cc1N(C)CCN(C)C` [Example 47, 2-((5-acrylamido-4-((2-(dimethylamino)ethyl)(methyl)amino)-2-methoxyphenyl)amino)-4-(5,6-dihydro-4H-pyrrolo[3,2,1-ij]quinolin--yl)-N-(2-methoxyethyl)pyrimidine-5-carboxamide]: the IC50 (as a rule, the midpoint of a concentration-inhibition curve) is 500 to 1000 nM in assay [1], 100 to 500 nM in assay [3] and under 100 nM in assay [4]. Further, in assay [2], the “EGFR exon 21 L858R and exon 20 T790M mutation IC50” value is given as “C (IC50 value for the indicated mutant between greater than about 500 to about 1 μM)”. Also, in assay [5], the “EGFR exon 19 deletion and exon 20 T790M mutation IC50” value is reported as “B (IC50 value for the indicated mutant between about 100 to about 500 nM)”.
Consider `C=CC(=O)Nc1cc(Nc2ncc(-c3nnc(C)o3)c(-c3cn4c5c(cccc35)CCC4)n2)c(OC)cc1N(C)CCN(C)C` [Example 107], for which the IC50 in assay [1], in assay [3] and in assay [4] was under 100 nM throughout. Moreover, the “EGFR exon 21 L858R and exon 20 T790M mutation IC50” value in assay [2] is “A (IC50 value for the indicated mutant below about 100 nM)”. In addition, the “EGFR exon 19 deletion and exon 20 T790M mutation IC50” value in assay [5] is on record as “A (IC50 value for the indicated mutant below about 100 nM)”.
For `C=CC(=O)Nc1cc(Nc2ncc(CCC(O)CC)c(-c3cn4c5c(cccc35)CCC4)n2)c(OC)cc1N(C)CCN(C)C` (stereo not shown) [Example 38, N-(5-((4-(5,6-dihydro-4H-pyrrolo[3,2,1-ij]quinolin-1-yl)-5-(3-hydroxypentyl)pyrimidin-2-yl)amino)-2-((2-(dimethylamino)ethyl)(methyl)amino)-4-methoxyphenyl)acrylamide], the half-inhibitory concentration (IC50) in assay [1], in assay [3] and in assay [4] was under 100 nM throughout. Also, the “EGFR exon 21 L858R and exon 20 T790M mutation IC50” value in assay [2] is recorded as “A (IC50 value for the indicated mutant below about 100 nM)”. In addition, the “EGFR exon 19 deletion and exon 20 T790M mutation IC50” value in assay [5] is on record as “A (IC50 value for the indicated mutant below about 100 nM)”.
Take `C=CC(=O)Nc1cc(Nc2ncc(Cl)c(-c3cn4c5c(cccc35)OCC4)n2)c(OC)cc1N(C)CCN(C)C` [Example 76, N-(5-((5-chloro-4-(2,3-dihydro-[1,4]oxazino[2,3,4-hi]indol-6-yl)pyrimidin-2-yl)amino)-2-((2-(dimethylamino)ethyl)(methyl)amino)-4-methoxyphenyl)acrylamide]: the concentration for half-maximal inhibition (IC50) is 100 to 500 nM in assay [1], under 100 nM in assay [3] and under 100 nM in assay [4]. Further, the “EGFR exon 21 L858R and exon 20 T790M mutation IC50” value in assay [2] is given as “A (IC50 value for the indicated mutant below about 100 nM)”. Moreover, the “EGFR exon 19 deletion and exon 20 T790M mutation IC50” value in assay [5] is “A (IC50 value for the indicated mutant below about 100 nM)”.
For the molecule `C=CC(=O)Nc1cc(Nc2ncc(CCC3CCOC3)c(-c3cn4c5c(cccc35)CCC4)n2)c(OC)cc1N(C)CCN(C)C` (stereo not shown) [Example 36, N-(5-((4-(5,6-dihydro-4H-pyrrolo[3,2,1-ij]quinolin-1-yl)-5-(2-(tetrahydrofuran-3-yl)ethyl)pyrimidin-2-yl)amino)-2-((2-(dimethylamino)ethyl)(methyl)amino)-4-methoxyphenyl)acrylamide], the IC50 in assay [1] was 100 to 500 nM; in assay [3], 100 to 500 nM; in assay [4] it was under 100 nM. Besides, in assay [2], the “EGFR exon 21 L858R and exon 20 T790M mutation IC50” value is “B (IC50 value for the indicated mutant between about 100 to about 500 nM)”. Besides, the “EGFR exon 19 deletion and exon 20 T790M mutation IC50” value in assay [5] is reported as “A (IC50 value for the indicated mutant below about 100 nM)”.
As for `C=CC(=O)Nc1cc(Nc2ncc(C=C)c(-c3cn4c5c(cccc35)CCC4)n2)c(OC)cc1N(C)CCN(C)C` [Example 27, N-(5-((4-(5,6-dihydro-4H-pyrrolo[3,2,1-ij]quinolin-1-yl)-5-vinylpyrimidin-2-yl)amino)-2-((2-(dimethylamino)ethyl)(methyl)amino)-4-methoxyphenyl)acrylamide], the IC50 in assay [1], in assay [3] and in assay [4] was under 100 nM in each case. Also, in assay [2], the “EGFR exon 21 L858R and exon 20 T790M mutation IC50” value is given as “A (IC50 value for the indicated mutant below about 100 nM)”. In addition, the “EGFR exon 19 deletion and exon 20 T790M mutation IC50” value in assay [5] is recorded as “A (IC50 value for the indicated mutant below about 100 nM)”.
On to `C=CC(=O)Nc1cc(Nc2ncc(C#N)c(-c3cn4c5c(cccc35)CCC4)n2)c(OC)cc1N(C)CCNC` [Example 84, N-(5-((5-cyano-4-(5,6-dihydro-4H-pyrrolo[3,2,1-ij]quinolin-1-yl)pyrimidin-2-yl)amino)-4-methoxy-2-(methyl(2-(methylamino)ethyl)amino)phenyl)acrylamide], for which the IC50 was under 100 nM in assay [1], under 100 nM in assay [3] and over 1000 nM in assay [4]. Moreover, the “EGFR exon 21 L858R and exon 20 T790M mutation IC50” value in assay [2] was “A (IC50 value for the indicated mutant below about 100 nM)”. Also, the “EGFR exon 19 deletion and exon 20 T790M mutation IC50” value in assay [5] is reported as “A (IC50 value for the indicated mutant below about 100 nM)”.
In the case of `C=CC(=O)Nc1cc(Nc2ncc(CC)c(-c3cn4c5c(cccc35)OCC4)n2)c(OC)cc1N(C)CCN(C)C` [Example 1, N-(5-((4-(2,3-dihydro-[1,4]oxazino[2,3,4-hi]indol-6-yl)-5-ethylpyrimidin-2-yl)amino)-2-((2-(dimethylamino)ethyl)(methyl)amino)-4-methoxyphenyl)acrylamide], the figures for the IC50 in assay [1], in assay [3] and in assay [4] were 100 to 500 nM, under 100 nM and under 100 nM, respectively. The “EGFR exon 21 L858R and exon 20 T790M mutation IC50” value in assay [2] is “A (IC50 value for the indicated mutant below about 100 nM)”. Besides, the “EGFR exon 19 deletion and exon 20 T790M mutation IC50” value in assay [5] was “A (IC50 value for the indicated mutant below about 100 nM)”.
For the molecule `C=CC(=O)Nc1cc(Nc2ncc(-c3ncc[nH]3)c(-c3cn4c5c(cccc35)CCC4)n2)c(OC)cc1N(C)CCN(C)C` [Example 97], the figures for the half-inhibitory concentration (IC50) in assay [1], in assay [3] and in assay [4] were over 1000 nM, 100 to 500 nM and 100 to 500 nM, respectively. For the same molecule, the “EGFR exon 21 L858R and exon 20 T790M mutation IC50” value in assay [2] is given as “C (IC50 value for the indicated mutant between greater than about 500 to about 1 μM)”. Further, the “EGFR exon 19 deletion and exon 20 T790M mutation IC50” value in assay [5] was “B (IC50 value for the indicated mutant between about 100 to about 500 nM)”.
